# Read-outs that look alike come from different tables or passages of the source. In the oligonucleotide strings, read from the 5' end, every base follows the letter of its sugar. An asterisk marks phosphorothioate; unmarked linkages are phosphodiester. Other units and linkages are bracketed, terminal groups are in braces. A string of capitals states the bases alone. [tz] = triazole internucleoside linkage replacing phosphodiester; l = locked nucleic acid (LNA); [5mC] = 5-methylcytosine; d = 2'-deoxy (DNA)
# What was measured:
# [1] = system: DNA target 5′-dGCT GCA GGC GTC G (SEQ ID NO: 23); format: binding; details: for Tm, DNA target: pH 7
# [2] = system: RNA target 5′-rGCU GCA GGC GUC G (SEQ ID NO: 24); format: binding; details: for Tm, RNA target: pH 7
# [3] = system: RNA target: 5′-rGCU GCA AGC GUC G (SEQ ID NO: 34); experiment: UV thermal melting, single triazole linkage (MeC-T step), RNA target; format: binding
# [4] = system: DNA target: 5′-dGCT GCA AGC GTC G (SEQ ID NO: 33); experiment: UV thermal melting, single triazole linkage (MeC-T step), DNA target; format: binding
# [5] = system: RNA Target 3′-rGCUGCGMACGUCG (M = G, C, U); experiment: Mismatch discrimination against RNA targets containing a mismatch nucleotide (UV melting); format: binding
# [6] = system: DNA target: 5′-dGCT GGA GAG GTC G (SEQ ID NO: 39); format: binding; details: for Tm, DNA target: pH 7
# [7] = system: RNA target; 5′-rGCU AGA GAA GUC G (SEQ ID NO: 38); experiment: UV thermal melting, two triazole linkages (MeC-T steps), RNA target; format: binding; details: for Tm, RNA target / ΔTm/mod, RNA target: Table 6; for Tm, RNA target: 10 mM phosphate, 200 mM NaCl, pH 7.0, 3.0 μM each strand; for ΔTm/mod, RNA target: relative to unmodified ON7
# [8] = system: DNA target; 5′-dGCT AGA GAA GTC G (SEQ ID NO: 37); experiment: UV thermal melting, two triazole linkages (MeC-T steps), DNA target; format: binding; details: Table 6; for Tm, DNA target: 10 mM phosphate, 200 mM NaCl, pH 7.0, 3.0 μM each strand; for ΔTm/mod, DNA target: relative to unmodified ON7
# [9] = system: Phosphodiesterase 1 from Crotalus adamanteus venom
# [10] = Table 5, 10 mM phosphate, 200 mM NaCl, pH 7.0, 3.0 μM each strand
# [11] = change in Tm relative to the fully matched duplex (M = A)
# [12] = Table 3, fully matched duplex (M = A)
substance,measurement,setting,value
5′-d CGACG^MeCp^MeCTGCAGC [ON33],"Tm, DNA target",[1],68.7 °C
same,"Tm, RNA target",[2],69.1 °C
5′-d CGACG^MeCp^MeC^LTGCAGC [ON34],"ΔTm, DNA target (relative to the unmodified duplex ON33)",[1],+3.3
same,"Tm, DNA target",[1],72 °C
same,"ΔTm, RNA target (relative to the unmodified duplex ON33)",[2],+5.6
same,"Tm, RNA target",[2],74.7 °C
5′-dCGACG^MeC^LtTTGCAGC (DNA dCdGdAdCdGl[5mC][tz]dTdTdGdCdAdGdC; further chemistry not given here) [ON5],additional stabilising effect of LNA on the 5′-side of the triazole,[3]; DNA:RNA hybrids or DNA duplexes,no significant additional stabilising effect
same,"Tm, RNA target",[3]; [10],55.5 °C
same,"ΔTm, RNA target (change in Tm relative to the unmodified duplex)","[3]; Table 5, relative to ON1",-7.2 °C
same,"Tm, DNA target",[4]; [10],52.7 °C
same,"ΔTm, DNA target (change in Tm relative to the unmodified duplex)","[4]; Table 5, relative to ON1",-11.5 °C
5′-dCGACG^MeC^LtT^LTGCAGC [ON6],additional stabilising effect of LNA on the 5′-side of the triazole,[3],no significant additional stabilising effect
same,"ΔTm, RNA target (change in Tm relative to the unmodified duplex)",[3],+0.1
same,"Tm, RNA target",[3]; pH 7,62.9 °C
same,"ΔTm, DNA target (change in Tm relative to the unmodified duplex)",[4],-5.8
same,"Tm, DNA target",[4]; pH 7,58.4 °C
5′-dCGACG^MeCtTTGCAGC (DNA dCdGdAdCdGd[5mC][tz]dTdTdGdCdAdGdC; further chemistry not given here) [ON3],"ΔTm, mismatch M = C",[5]; [11],-16.1 °C
same,"ΔTm, mismatch M = G",[5]; [11],-2.2 °C
same,"ΔTm, mismatch M = U",[5]; [11],-12.9 °C
same,"Tm, RNA target M = A",[3]; [12],56.6 °C
same,"Tm, RNA target",[3]; [10],56.6 °C
same,"ΔTm, RNA target (change in Tm relative to the unmodified duplex)","[3]; Table 5, relative to ON1",-6.2 °C
same,"Tm, DNA target",[4]; [10],55.3 °C
same,"ΔTm, DNA target (change in Tm relative to the unmodified duplex)","[4]; Table 5, relative to ON1",-8.9 °C
5′-dCGACG^MeCtT^LTGCAGC [ON2],"ΔTm, mismatch M = C",[5],-15.6
same,"ΔTm, mismatch M = G",[5],-3.3
same,"ΔTm, mismatch M = U",[5],-13.4
same,"Tm, RNA target M = A",[3],62 °C
same,increase in Tm relative to the duplex with only the triazole linkage,[3],5.4
same,"ΔTm, RNA target (change in Tm relative to the unmodified duplex)",[3],−0.8
same,"Tm, RNA target",[3]; pH 7,62 °C
same,increase in thermal stability compared to the duplex containing only the triazole linkage,[4],2.9
same,"ΔTm, DNA target (change in Tm relative to the unmodified duplex)",[4],−6.0
same,"Tm, DNA target",[4]; pH 7,58.2 °C
5′-dCGACG^MeCt^MeCTGCAGC [ON12],"ΔTm, DNA target (relative to the unmodified duplex ON33)",[1],-6.4
same,"Tm, DNA target",[1],62 °C
same,"ΔTm, RNA target (relative to the unmodified duplex ON33)",[2],-5.8
same,"Tm, RNA target",[2],63.4 °C
5′-dCGACG^MeCt^MeC^LTGCAGC [ON11],"ΔTm, DNA target (relative to the unmodified duplex ON33)",[1],-5.1
same,"Tm, DNA target",[1],63.5 °C
same,"ΔTm, RNA target (relative to the unmodified duplex ON33)",[2],-0.5
same,"Tm, RNA target",[2],68.6 °C
5′-dCGA^MeCp^MeCTCT^MeCp^MeCAGC [ON35],"Tm, DNA target",[6],66.6 °C
5′-dCGA^MeCp^MeC^LTCT^MeCp^MeC^LAGC [ON36],"ΔTm/mod, DNA target",[6],+2.8
same,"Tm, DNA target",[6],72.2 °C
5′-dCGA^MeCtTTCT^MeCtTAGC (DNA dCdGdAd[5mC][tz]dTdTdCdTd[5mC][tz]dTdAdGdC; further chemistry not given here) [ON9],"Tm, RNA target",[7],47.1 °C
same,"ΔTm/mod, RNA target",[7],-5.8 °C/modification
same,"Tm, DNA target",[8],42.3 °C
same,"ΔTm/mod, DNA target",[8],-7.4 °C/modification
5′-dCGA^MeCtT^LTCT^MeCtT^LAGC (DNA dCdGdAd[5mC][tz]lTdTdCdTd[5mC][tz]lTdAdGdC; further chemistry not given here) [ON8],increase in Tm per modification relative to two triazole linkages without 3′-LNA,"[7]; ON8 compared with ON9, RNA target",5.0 °C/modification
same,drop in Tm per modification compared to unmodified ON7,[7]; RNA target,0.8 °C/modification
same,"Tm, RNA target",[7],57.1 °C
same,"ΔTm/mod, RNA target",[7],-0.8 °C/modification
same,"Tm, DNA target",[8],48.0 °C
same,"ΔTm/mod, DNA target",[8],-4.5 °C/modification
5′-dCGA^MeCt^MeCTCT^MeCt^MeCAGC [ON14],"ΔTm/mod, DNA target",[6],-7.3
same,"Tm, DNA target",[6],51.9 °C
5′-dCGA^MeCt^MeC^LTCT^MeCt^MeC^LAGC [ON13],"ΔTm/mod, DNA target",[6],-5.1
same,"Tm, DNA target",[6],56.4 °C
"CGACG^MeCTTGCAGC (DNA CGACGCTTGCAGC; DNA, [5mC] at 6, backbone not given here) [ON1]","ΔTm, mismatch M = C",[5]; [11],-16.3 °C
same,"ΔTm, mismatch M = G",[5]; [11],-3.9 °C
same,"ΔTm, mismatch M = U",[5]; [11],-13.7 °C
same,time to full digestion by 3′-exonuclease (gel),[9],≤ 5 min
same,"Tm, RNA target M = A",[3]; [12],62.8 °C
same,"Tm, RNA target",[3]; [10],62.8 °C
same,"Tm, DNA target",[4]; [10],64.2 °C
CGACG^MeCT^LTGCAGC [ON4],"ΔTm, mismatch M = C",[5],-15.2
same,"ΔTm, mismatch M = G",[5],-4.8
same,"ΔTm, mismatch M = U",[5],-13.7
same,"Tm, RNA target M = A",[3],68.9 °C
same,"ΔTm, RNA target (change in Tm relative to the unmodified duplex)",[3],6.1
same,"Tm, RNA target",[3]; pH 7,68.9 °C
same,"ΔTm, DNA target (change in Tm relative to the unmodified duplex)",[4],3.3
same,"Tm, DNA target",[4]; pH 7,67.5 °C
CGA^MeCTTCT^MeCTAGC (DNA dCdGdAd[5mC]dTdTdCdTd[5mC]dTdAdGdC) [ON7],"Tm, RNA target",[7],58.8 °C
same,"Tm, DNA target",[8],57.1 °C
CGA^MeCT^LTCT^MeCT^LAGC (DNA dCdGdAd[5mC]lTdTdCdTd[5mC]lTdAdGdC) [ON10],"Tm, RNA target",[7],70.0 °C
same,"ΔTm/mod, RNA target",[7],+5.6 °C/modification
same,"Tm, DNA target",[8],62.2 °C
same,"ΔTm/mod, DNA target",[8],+2.5 °C/modification
